One series deals with Na+/K+-ATPase. To be noted: compared with digoxin; cited from earlier work.
The target in a further series is T1, mouse RORγt (Mus musculus, UniProt P51450).
T1 construct: mouse RORγt (amino acids 79 to the carboxyl terminal end); expressed in transfected cells
T1 sequence (P51450 79-495 isoform P51450-2): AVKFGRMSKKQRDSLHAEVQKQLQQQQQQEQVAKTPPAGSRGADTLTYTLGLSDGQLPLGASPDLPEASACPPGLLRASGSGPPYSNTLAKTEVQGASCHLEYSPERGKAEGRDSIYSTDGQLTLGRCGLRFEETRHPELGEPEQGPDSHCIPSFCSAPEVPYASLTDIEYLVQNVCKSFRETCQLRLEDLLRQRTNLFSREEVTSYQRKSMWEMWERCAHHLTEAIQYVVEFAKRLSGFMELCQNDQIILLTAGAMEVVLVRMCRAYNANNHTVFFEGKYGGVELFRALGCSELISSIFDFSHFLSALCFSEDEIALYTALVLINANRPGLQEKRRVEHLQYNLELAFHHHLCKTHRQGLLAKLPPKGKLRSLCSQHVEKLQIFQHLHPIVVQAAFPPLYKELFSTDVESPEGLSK
Put plainly: Drosophila S2 cell RORγt luciferase reporter. It is filed as cell-based. To be noted: for effect on RORγ transcriptional activity: S2 reporter system. From the text:
The Drosophila S2 cell line was originally purchased from Invitrogen and was maintained in Schneider's medium supplemented with 10% heat-inactivated bovine fetal calf serum and antibiotics (Invitrogen). […] The resulting chimeric gene was subcloned into the copper inducible pMT/V5-His A vector (Invitrogen). […] Coding sequences for firefly luciferase (Promega) were PCR amplified and subcloned into pUAST vector containing Gal4 binding enhancer sequences. Renilla luciferase construct under the polIII promoter was obtained from Dr. Dasgupta's laboratory (NYU medical center). In order to generate stable cell lines, cells were co-transfected with pMT-G4 DBD-RORγt, pMT-G4 DBD-RORα, pMT-G4 DBD-DHR3, or pMT-G4 DBDVP16 and pHygro plasmids (Invitrogen) and screened for resistant colonies in the presence of hygromycin (0.3 mg/mL). […] Using similar methods, stable clones with genomic integration of the luciferase reporters and other reporters were generated such as pMT-RORα_luc, pMT-DHR3_Luc, or pMT-VP16_luc.
(§1) The following representative compounds are tested for their RORγt inhibitory activity and toxicity.
Promega Dual-Glo system is widely used for HTS as the luciferase substrates. Cell culture medium was reduced to the final volume of 10 μl or less and 10 μl of Dual-glo and 10 μl of Stop-glo luciferase substrates were added in a sequencial manner (Promega). Firefly and Renilla luciferase activity was determined by measuring luminescence signals using an automated 384-well plate reader equipped with multiple stack units (such as the Analyst GT or Envision plate readers).
10,000 Drosophila stable S2 cells with genomic integration of the Cu2+-inducible G4 DBD-mouse RORγ construct were transfected with 5 ng of pUASTfirefly luciferase and 7 ng of Pol III-Renilla luciferase and dispensed into white bottom-tissue culture 384-well plates (Corning). […] The following morning, Stop-glo luciferase substrates (Promega) were used to measure luciferase activity.
The Drosophila S2 cell line was originally purchased from Invitrogen and was maintained in Schneider's Drosophila medium supplemented with 10% heat-inactivated bovine fetal calf serum and 1× antibiotic-antimycotic solution (Invitrogen). […] The resulting chimeric gene was subcloned into the copper inducible pMT/V5-His A vector (Invitrogen) and into the constitutive pAc vector. […] Coding sequences for firefly luciferase (Promega) were PCR amplified and subcloned into the pUAST vector containing five Gal4 binding enhancer sequences. The Renilla luciferase construct under a pol III promoter and the pAc vector were obtained from R. Dasgupta (NYU School of Medicine). To generate cell lines stably expressing various chimeric proteins upon copper addition, S2 cells were co-transfected with pMT plasmids encoding individual G4 DBD chimeric constructs and the pCoHygro plasmid (Invitrogen), before screening for resistant colonies in the presence of hygromycin (0.3 mg/mL). […] The human androgen receptor (hAR) expression plasmid pMK33-hAR and its reporter TAT3-Luc were obtained from M. Garabedian (NYU School of Medicine). […] R1881 (10 nM) and Dafachronic acid (10 μM) were used as ligands for hAR and Daf12. Upon treatment of cells with copper, in 384 well plates, there was specific increase in firefly luciferase activity versus normalized Renilla luciferase activity for all cell lines described above, validating the method for high-throughput screen.
Transfections of firefly and Renilla reporter constructs were performed using the Effectene kit from Qiagen according to the manufacturer's protocol with some modifications.
In general terms: In a reporter assay the amount or activity of a reporter protein is the signal.

In series [1] the test system is human embryonic kidney 293t cell lines. Put plainly: Toxicity on human embryonic kidney 293T cells. How it is done: as §1
Series [2] is described as follows: Precipitation noted in Table 2. The class given is physicochemical.
For a further series, the target named is T2, human RORγt (Homo sapiens, UniProt P51449).
T2 construct: expressed in transfected cells; host or cells: human CD4+ T cells (cord blood or adult blood), lentiviral HDV-IRES-GFP/HSA vectors
T2 sequence (P51449 1-497 isoform P51449-2): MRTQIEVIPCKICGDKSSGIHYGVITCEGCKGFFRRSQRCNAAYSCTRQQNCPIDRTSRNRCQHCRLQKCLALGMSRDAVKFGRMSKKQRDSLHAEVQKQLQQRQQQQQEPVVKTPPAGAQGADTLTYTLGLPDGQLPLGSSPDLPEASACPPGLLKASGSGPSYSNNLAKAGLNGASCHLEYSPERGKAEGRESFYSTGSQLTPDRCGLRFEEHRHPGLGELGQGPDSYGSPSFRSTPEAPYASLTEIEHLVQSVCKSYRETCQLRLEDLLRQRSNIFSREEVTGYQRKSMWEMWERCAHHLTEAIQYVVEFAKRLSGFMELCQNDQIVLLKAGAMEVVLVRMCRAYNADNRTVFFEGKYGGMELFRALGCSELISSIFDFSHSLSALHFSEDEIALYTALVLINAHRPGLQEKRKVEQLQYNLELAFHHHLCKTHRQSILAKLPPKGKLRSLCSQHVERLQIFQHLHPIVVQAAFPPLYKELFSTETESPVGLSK
Put plainly: IL-17a induction in human CD4+ T cells transduced with RORαd, RORβ or RORγt. The class given is cell-based. As to conditions: 10 μM, FIG. 3b. The method, then: (§2) GFP expressing cells were gated for analysis. DMSO, Dig(dhd) (40 μM) or Dig(sal) (10 μM) was added 6-8 h after viral transduction. c, Flow cytometry of the production of IL-17a and IFN-γ by human naive cord blood T cells cultured for six days in the presence of IL-2, IL-23, and IL-1β, with various concentrations of TGF-β. DMSO, Dig(dhd), or Dig(sal) at indicated concentrations (μM) was added 16 h after cytokine addition.
(§3) Blood samples were obtained from the New York Blood Center. Mononuclear cells were prepared from buffy coats from healthy adult donors or from cord blood, using FicollPAQUE gradients. CD4^+ T cells were magnetically selected (autoMACS, Miltenyi). Adult memory CD4^+ T cell subsets were further purified as CD3^+CD4^+CD25^− CD45RO^+CCR6^+CD161^+ by cell sorting on a FACSAria (BD). Naive CD4^+ T cells were isolated from cord blood as CD3^+CD4^+CD45RA^+HLA-DR^−CD25^−DAPI^−. Memory cells were activated with anti-CD3/CD28 coated beads (1 bead/cell) in T cell media (see above) supplemented with 100 U/mL IL-2 (Peprotech), 10 ng/mL IL-1b and 10 ng/mL IL-23 (eBioscience). Naive cells were activated with anti-CD3/CD28 beads and cultured with the same cytokines, and TGF-b (0, 0.1, 1, or, 10 ng/mL) (Peprotech), in XVIVO-20 (Lonza) media. […] Naive CD4^+ T cells, cultured in XVIVO-20 media supplemented 100 U/mL IL-2 (Peprotech), were transduced with RORad-IRES-GFP or RORγt-IRES-GFP on day 1 and analyzed on day 6. GFP expressing cells were gated for analysis. DMSO or compounds were added 6-8 hours after the viral transduction.
Blood samples were obtained from the New York Blood Center. Mononuclear cells were prepared from buffy coats from healthy adult donors or from cord blood, using FicollPAQUE gradients. CD4^+ T cells were magnetically selected (autoMACS, Miltenyi). Adult memory CD4+ T cell subsets were further purified as CD3^+CD4^+CD25^−CD45RO^+CCR6^+CD161^+ by cell sorting on a FACSAria (BD). […] Naive CD4+ T cells, cultured in XVIVO-20 media supplemented with 100 U/mL IL-2 (Peprotech), were transduced with RORαd-IRES-GFP or RORγt-IRES-GFP on day 1 and analyzed on day 6. […]

The test system of series [3] is human Th17 cell differentiation. Put plainly: Human Th17 cell differentiation from naive cord blood CD4+ T cells. It is filed as cell-based. How it is done: as §2, §3
(§4) Blood samples were obtained from the New York Blood Center. Mononuclear cells were prepared from buffy coats from healthy adult donors or from cord blood, using FicollPAQUE gradients. CD4^+ T cells were magnetically selected (autoMACS, Miltenyi). Adult memory CD4+ T cell subsets were further purified as CD3^+CD4^+CD25^−CD45RO^+CCR6^+CD161^+ by cell sorting on a FACSAria (BD). Naive CD4^+ T cells were isolated from cord blood as CD3^+CD4^+CD45RA^+HLA^−DR^−CD25^−DAPI^−. Memory cells were activated with anti-CD3/CD28 coated beads (1 bead/cell) in T cell media (see above) supplemented with 100 U/mL IL-2 (Peprotech), 10 ng/mL IL-1β and 10 ng/mL IL-23 (eBioscience). Naive cells were activated with anti-CD3/CD28 beads and cultured with the same cytokines, and TGF-β (0, 0.1, 1, or, 10 ng/mL) (Peprotech), in XVIVO-20 (Lonza) media. […] Naive CD4+ T cells, cultured in XVIVO-20 media supplemented with 100 U/mL IL-2 (Peprotech), were transduced with RORαd-IRES-GFP or RORγt-IRES-GFP on day 1 and analyzed on day 6. GFP expressing cells were gated for analysis. DMSO or compounds were added 6-8 hours after the viral transduction.

Series [4] has as its system IL-17a production in human CD4+ T cells. Put plainly: Human cord blood CD4+ T cells expressing murine ATP1a1, Th17 conditions. It is filed as cell-based. As to conditions: murine Na+/K+-ATPase α1 expressed, 10 μM. The method, then: as §4

For the compound `CC1OC(OC2C(O)CC(OC3C(O)CC(OC4CCC5(C)C(CCC6C5CC(O)C5(C)C(C7COC(=O)C7)CCC65O)C4)OC3C)OC2C)CC(O)C1O` (centres unmarked) [20,22-Dihydrodigoxin], the “Na+/K+-ATPase inhibition / binding affinity” value in the series on Na+/K+-ATPase is given as “much lower binding affinity than that of digoxin”. Besides, the “effect on RORγ transcriptional activity” value on mouse RORγt is recorded as “inhibited”. In addition, in series [1], the “cytotoxic concentration on human cells” value was determined as 2.5 µM.
The inhibition is how much of the control response was suppressed. Broadly, the IC50 is the concentration at which inhibition is half-maximal. A lower IC50 goes with inhibition by little substance. Regarding `CC1OC(OC2C(O)CC(OC3C(O)CC(OC4CCC5(C)C(CCC6C5CC(O)C5(C)C(C7=CC(=O)OC7=Cc7ccccc7O)CCC65O)C4)OC3C)OC2C)CC(O)C1O` (centres unmarked) [Compound 15, Digoxin-21-salicylidene], in series [2], the Note result is listed as “precipitate at high”. On human RORγt, the “RORγt-mediated IL-17a induction (versus RORαd)” value is recorded as “selectively suppressed”. Also, in series [3] (FIG. 3c), the “IFN-γ expression in T cells” value is recorded as “reciprocal increases” and the Th17 cell differentiation entry is listed as “blocked”. Further, the inhibition at 10 µM in series [3] (Homo sapiens, CD4+ T, at 10 uM) is approximately 70%. This compound gave a concentration for half-maximal inhibition (IC50) against mouse RORγt of less than 1000 nM.
Consider `CC(=O)O[C@H]1C[C@H](O[C@H]2[C@@H](O)C[C@H](O[C@H]3[C@@H](O)C[C@H](O[C@H]4CC[C@@]5(C)[C@H](CC[C@@H]6[C@@H]5C[C@@H](O)[C@]5(C)[C@@H](C7=CC(=O)OC7)CC[C@]65O)C4)O[C@@H]3C)O[C@@H]2C)O[C@H](C)[C@H]1O[C@@H]1O[C@H](CO)[C@@H](O)[C@H](O)[C@H]1O` [lanatoside C, Lanatoside C], for which the IL-17a expression entry in series [4] was “no effect”. Moreover, on mouse RORγt, the “effect on RORγ transcriptional activity” value was “no significant effect”.

Source of the values: patent publication US9505798B2, “Steroid compounds as RORyt modulators and uses thereof” (New York University, priority 2010, dated 2016).
